In this experiment the target is human σ1 receptor and human μ-opioid receptor. Nature of the experiment: Human σ1 receptor and human μ-opioid receptor radioligand assays (dual binding). The note with it: combined class for Ki-μ ([3H]-DAMGO, transfected CHO-K1 membranes) and Ki-σ1 ([3H](+)-pentazocine, transfected HEK-293 membranes).

SMILES strings stand for the structures. Some results are limits rather than exact numbers.

For the molecule `O=C(CN1CCC2(CC1)COCCN2C(=O)c1ccccc1)c1ccccc1` [Example 45, 2-(1-benzoyl-4-oxa-1,9-diazaspiro[5.5]undecan-9-yl)-1-phenylethanone], the inhibition constant (Ki) was no less than 500 nM. `O=C(c1cscn1)N1CCOCC12CCN(CCc1ccccc1)CC2` [Example 16, (9-phenethyl-4-oxa-1,9-diazaspiro[5.5]undecan-1-yl)(thiazol-4-yl)methanone]: the Ki was no less than 500 nM. On to `O=C(c1ccccc1)N1CCOCC12CCN(CC(O)c1ccccc1)CC2` (stereo not shown) [Example 51, (9-(2-hydroxy-2-phenylethyl)-4-oxa-1,9-diazaspiro[5.5]undecan-1-yl)(phenyl)methanone], for which the Ki was no less than 500 nM. As for `O=C(c1ccncc1)N1CCOCC12CCN(CCc1ccccc1)CC2` [Example 13, (9-phenethyl-4-oxa-1,9-diazaspiro[5.5]undecan-1-yl)(pyridin-4-yl)methanone], the inhibitory constant (Ki) is no less than 500 nM. As to `O=[N+]([O-])c1cccc(CCN2CCC3(CC2)COCCN3c2ccccc2)c1` [Example 41, 9-(3-nitrophenethyl)-1-phenyl-4-oxa-1,9-diazaspiro[5.5]undecane], the Ki is no less than 500 nM. Take `O=C(c1ccccn1)N1CCOCC12CCN(CCc1ccccc1)CC2` [Example 11, (9-phenethyl-4-oxa-1,9-diazaspiro[5.5]undecan-1-yl)(pyridin-2-yl)methanone]: the inhibition constant Ki was no less than 500 nM. Regarding `O=C(Cc1ccncc1)N1CCOCC12CCN(CCc1ccccc1)CC2` [Example 19, 1-(9-phenethyl-4-oxa-1,9-diazaspiro[5.5]undecan-1-yl)-2-(pyridin-4-yl)ethanone], the Ki is no less than 500 nM.

As for `O=C(Cc1cccnc1)N1CCOCC12CCN(CCc1ccccc1)CC2` [Example 22, 1-(9-phenethyl-4-oxa-1,9-diazaspiro[5.5]undecan-1-yl)-2-(pyridin-3-yl)ethanone], the inhibition constant Ki was no less than 500 nM. Turning to `O=C(c1cncs1)N1CCOCC12CCN(CCc1ccccc1)CC2` [Example 20, (9-phenethyl-4-oxa-1,9-diazaspiro[5.5]undecan-1-yl)(thiazol-5-yl)methanone], the Ki was no less than 500 nM. As to `Nc1cccc(CCN2CCC3(CC2)COCCN3c2ccccc2)c1` [Example 50, 3-(2-(1-phenyl-4-oxa-1,9-diazaspiro[5.5]undecan-9-yl)ethyl)aniline], the inhibitory constant (Ki) is no less than 500 nM. `O=C(c1cccnc1)N1CCOCC12CCN(CCc1ccccc1)CC2` [Example 14, (9-phenethyl-4-oxa-1,9-diazaspiro[5.5]undecan-1-yl)(pyridin-3-yl)methanone]: the Ki is no less than 500 nM. Regarding `O=C(Cc1ccccn1)N1CCOCC12CCN(CCc1ccccc1)CC2` [Example 17, 1-(9-phenethyl-4-oxa-1,9-diazaspiro[5.5]undecan-1-yl)-2-(pyridin-2-yl)ethanone], the Ki is no less than 500 nM. Consider `Fc1cnccc1CN1CCOCC12CCN(CCc1ccccc1)CC2` [Example 31, 1-((3-fluoropyridin-4-yl)methyl)-9-phenethyl-4-oxa-1,9-diazaspiro[5.5]undecane], for which the Ki was no less than 500 nM.

Usually Ki stands for a dissociation constant, usually derived from enzyme kinetics or from competition with a known ligand.

For the origin of these results see patent US10022359B2, “1,9-diazaspiro undecane compounds having multimodal activity against pain” (LABORATORIOS DEL DR. ESTEVE S.A., priority 2014, dated 2018).
